Consider three compounds from ChEMBL document CHEMBL3399986, “Rapid 'one-pot' synthesis of a novel benzimidazole-5-carboxylate and its hydrazone derivatives as potential anti-inflammatory and antimicrobial agents” (Bioorg Med Chem Lett, 2015).

Values after ≈ are worked out from the molar mass of the structure shown.

Data set [1] has as its system Candida tropicalis. The data set is described as follows: Antifungal activity against Candida tropicalis MTCC 183 assessed as zone of inhibition at 5 mg/ml after 24 hrs by agar well diffusion method. To be noted: MTCC 183, 24 h, read-out: IZ. The format is functional.
Data set [2] deals with MDA-MB-231. The data set is described as follows: Cytotoxicity against human MDA-MB-231 cells assessed as cell death at 1 ug/ml after 48 hrs by MTT assay. To be noted: mda-mb-231, 48 h. The class given is cell-based.
Data set [3] deals with Escherichia coli. In words: Antimicrobial activity against Escherichia coli MTCC 4351 after 24 hrs by broth dilution method. The format is functional. To be noted: MTCC 4351, 24 h.
Data set [4] relates to Rattus norvegicus. In words: Antiinflammatory activity in rat assessed as inhibition of carrageenan-induced paw edema administered 30 mins prior to carrageenan challenge measured after 1 hr relative to control. The format is functional.
Data set [5] has as its system Rattus norvegicus. The data set is described as follows: Antiinflammatory activity in rat assessed as inhibition of carrageenan-induced paw edema administered 30 mins prior to carrageenan challenge measured after 2 hrs relative to control. The class given is functional.
Data set [6] deals with Penicillium chrysogenum. The data set is described as follows: Antifungal activity against Penicillium notatum assessed as zone of inhibition at 5 mg/ml after 24 hrs by agar well diffusion method. The format is functional. To be noted: read-out: IZ.
Data set [7] has as its system Aspergillus niger. In words: Antifungal activity against Aspergillus niger MTCC 282 assessed as zone of inhibition at 5 mg/ml after 24 hrs by agar well diffusion method. The class given is functional. To be noted: MTCC 282, 24 h, read-out: IZ.
Data set [8] has as its system Bacillus subtilis. The data set is described as follows: Antimicrobial activity against Bacillus subtilis MTCC 441 assessed as zone of inhibition at 5 mg/ml after 24 hrs by agar well diffusion method. The format is functional. Conditions: MTCC 441, 24 h, read-out: IZ.
Data set [9] concerns Klebsiella pneumoniae. In words: Antimicrobial activity against Klebsiella pneumoniae MTCC 3384 after 24 hrs by broth dilution method. The format is functional. Conditions: MTCC 3384, 24 h.
Data set [10] deals with Klebsiella pneumoniae. In words: Antimicrobial activity against Klebsiella pneumoniae MTCC 3384 assessed as zone of inhibition at 5 mg/ml after 24 hrs by agar well diffusion method. The class given is functional. Conditions: MTCC 3384, 24 h, read-out: IZ.
Data set [11] has as its system Staphylococcus aureus. In words: Antimicrobial activity against Staphylococcus aureus MTCC 3160 after 24 hrs by broth dilution method. The format is functional. Conditions: MTCC 3160, 24 h.
For data set [12], the system named is Rattus norvegicus. In words: Antiinflammatory activity in rat assessed as inhibition of carrageenan-induced paw edema administered 30 mins prior to carrageenan challenge measured after 3 hrs relative to control. The format is functional.
Data set [13] concerns MDA-MB-231. In words: Cytotoxicity against human MDA-MB-231 cells assessed as cell death at 2.5 ug/ml after 48 hrs by MTT assay. The class given is cell-based. Conditions: mda-mb-231, 48 h.
The test system of data set [14] is MDA-MB-231. The data set is described as follows: Cytotoxicity against human MDA-MB-231 cells assessed as cell death at 5 ug/ml after 48 hrs by MTT assay. The format is cell-based. Conditions: mda-mb-231, 48 h.
Data set [15] has as its system Aspergillus niger. The data set is described as follows: Antifungal activity against Aspergillus niger MTCC 282 after 48 hrs by broth dilution method. The format is functional. To be noted: MTCC 282, 48 h.
The subject of data set [16] is Escherichia coli. The data set is described as follows: Antimicrobial activity against Escherichia coli MTCC 4351 assessed as zone of inhibition at 5 mg/ml after 24 hrs by agar well diffusion method. The format is functional. Conditions: MTCC 4351, 24 h, read-out: IZ.
Data set [17] deals with MDA-MB-231. The data set is described as follows: Cytotoxicity against human MDA-MB-231 cells assessed as cell death at 10 ug/ml after 48 hrs by MTT assay. To be noted: mda-mb-231, 48 h. The class given is cell-based.
Data set [18] relates to Staphylococcus aureus. The data set is described as follows: Antimicrobial activity against Staphylococcus aureus MTCC 3160 assessed as zone of inhibition at 5 mg/ml after 24 hrs by agar well diffusion method. Conditions: MTCC 3160, 24 h, read-out: IZ. The class given is functional.
The test system of data set [19] is Candida albicans. The data set is described as follows: Antifungal activity against Candida albicans MTCC 461 after 48 hrs by broth dilution method. The format is functional. To be noted: MTCC 461, 48 h.
Data set [20] deals with Penicillium chrysogenum. In words: Antifungal activity against Penicillium notatum after 48 hrs by broth dilution method. The format is functional.
The subject of data set [21] is Candida albicans. In words: Antifungal activity against Candida albicans MTCC 461 assessed as zone of inhibition at 5 mg/ml after 24 hrs by agar well diffusion method. The class given is functional. Conditions: MTCC 461, 24 h, read-out: IZ.
Data set [22] concerns Bacillus subtilis. The data set is described as follows: Antimicrobial activity against Bacillus subtilis MTCC 441 after 24 hrs by broth dilution method. The class given is functional. Conditions: MTCC 441, 24 h.
For data set [23], the system named is Candida tropicalis. The data set is described as follows: Antifungal activity against Candida tropicalis MTCC 183 after 48 hrs by broth dilution method. The class given is functional. To be noted: MTCC 183, 48 h.

For the compound `CCCn1c(-c2ccc(Cl)cc2Cl)nc2cc(C(=O)N/N=C/c3ccccc3Cl)ccc21`, the zone of inhibition at 5000 µg/mL with Candida tropicalis [1] came out at 18 mm; in the data set on Penicillium chrysogenum [6], 15 mm; with Aspergillus niger [7] it was 21 mm; with Bacillus subtilis [8], 16 mm; in the data set on Klebsiella pneumoniae [10], 17 mm; in the data set on Escherichia coli [16], 18 mm. The zone of inhibition at 5000 µg/mL in the data set on Staphylococcus aureus [18] stood at 15 mm; in the data set on Candida albicans [21] it was 17 mm. Also, the Activity is -2.05% in the data set on MDA-MB-231 [2], -0.44% in the data set with MDA-MB-231 [13], 1.61% with MDA-MB-231 [14] and 2.78% in the data set with MDA-MB-231 [17]. The MIC against Escherichia coli [3] is 12.5 µg/mL (≈ 25.7 µM); in the data set on Klebsiella pneumoniae [9], 25 µg/mL (≈ 51.5 µM); in the data set on Staphylococcus aureus [11], 25 µg/mL (≈ 51.5 µM); against Aspergillus niger [15], 6.25 µg/mL (≈ 12.9 µM); in the data set on Candida albicans [19], 12.5 µg/mL (≈ 25.7 µM); in the data set with Penicillium chrysogenum [20], 12.5 µg/mL (≈ 25.7 µM). For the same compound, the MIC turned out to be 25 µg/mL (≈ 51.5 µM) in the data set on Bacillus subtilis [22] and 6.25 µg/mL (≈ 12.9 µM) against Candida tropicalis [23]. Moreover, the “inhibition (INH)” value with Rattus norvegicus [4] was 65.55%; with Rattus norvegicus [5] it was 70.62%; in the data set on Rattus norvegicus [12], 71.97%.
On to `CCCn1c(-c2ccc(Cl)cc2Cl)nc2cc(C(=O)N/N=C/c3cccc(Br)c3)ccc21`, for which the zone of inhibition at 5000 µg/mL was found to be 16 mm in the data set on Candida tropicalis [1]; 15 mm in the data set on Penicillium chrysogenum [6]; 22 mm in the data set on Aspergillus niger [7]; 12 mm in the data set with Bacillus subtilis [8]; 17 mm with Klebsiella pneumoniae [10]; 18 mm in the data set on Escherichia coli [16]. Besides, the zone of inhibition at 5000 µg/mL worked out at 18 mm in the data set on Staphylococcus aureus [18] and 16 mm with Candida albicans [21]. For the same compound, the Activity with MDA-MB-231 [2] is recorded as -12.5%; with MDA-MB-231 [13], -1.17%; with MDA-MB-231 [14], -2.12%; with MDA-MB-231 [17] it was 7.46%. Also, the MIC was 12.5 µg/mL (≈ 23.6 µM) against Escherichia coli [3]; 25 µg/mL (≈ 47.1 µM) against Klebsiella pneumoniae [9]; 6.25 µg/mL (≈ 11.8 µM) with Staphylococcus aureus [11]; 3.12 µg/mL (≈ 5.88 µM) in the data set on Aspergillus niger [15]; 12.5 µg/mL (≈ 23.6 µM) against Candida albicans [19]; 25 µg/mL (≈ 47.1 µM) in the data set on Penicillium chrysogenum [20]. For the same compound, the MIC against Bacillus subtilis [22] was found to be 50 µg/mL (≈ 94.3 µM); against Candida tropicalis [23] it was 12.5 µg/mL (≈ 23.6 µM). In addition, the “inhibition (INH)” value in the data set on Rattus norvegicus [4] was 65.18%; with Rattus norvegicus [5] it was 58.04%; with Rattus norvegicus [12] it was 72.11%.
Regarding `CCCn1c(-c2ccc(Cl)cc2Cl)nc2cc(C(=O)N/N=C/c3cc(Br)ccc3O)ccc21`, the zone of inhibition at 5000 µg/mL stood at 18 mm in the data set on Candida tropicalis [1]; 18 mm with Penicillium chrysogenum [6]; 22 mm with Aspergillus niger [7]; 22 mm with Bacillus subtilis [8]; 20 mm with Klebsiella pneumoniae [10]; 22 mm with Escherichia coli [16]. The zone of inhibition at 5000 µg/mL with Staphylococcus aureus [18] amounted to 22 mm; in the data set with Candida albicans [21] it was 21 mm. Further, the Activity with MDA-MB-231 [2] is on record as -6.58%; in the data set on MDA-MB-231 [13] it was -6.21%; with MDA-MB-231 [14], 0.07%; in the data set with MDA-MB-231 [17], 4.46%. Further, the MIC came out at 3.12 µg/mL (≈ 5.71 µM) in the data set with Escherichia coli [3]; 6.25 µg/mL (≈ 11.4 µM) in the data set on Klebsiella pneumoniae [9]; 3.12 µg/mL (≈ 5.71 µM) against Staphylococcus aureus [11]; 3.12 µg/mL (≈ 5.71 µM) in the data set with Aspergillus niger [15]; 3.12 µg/mL (≈ 5.71 µM) in the data set with Candida albicans [19]; 6.25 µg/mL (≈ 11.4 µM) in the data set with Penicillium chrysogenum [20]. Also, the MIC with Bacillus subtilis [22] came out at 3.12 µg/mL (≈ 5.71 µM); in the data set with Candida tropicalis [23], 6.25 µg/mL (≈ 11.4 µM). The “inhibition (INH)” value with Rattus norvegicus [4] is listed as 44.81%; with Rattus norvegicus [5], 47.41%; in the data set with Rattus norvegicus [12], 45.98%.
